{
  "source": "patent US20190201430A1",
  "about": "“TREATING OCULAR NEOVASCULARIZATION” (Massachusetts Eye and Ear Infirmary, priority 2014, published 2019)",
  "key": {"[1]": {"tested_on": "Akt", "experiment": "Western blotting of Akt phosphorylation in HUVECs (VEGF)", "format": "cell-based, human", "procedure": "(§1) Human umbilical vein endothelial cells (HUVECs) were cultured in endothelial growth medium (EGM, Lonza, Walkersville, Md.). Normal human dermal fibroblasts (NHDFs) were cultured in fibroblast basal medium (ATCC, Rockville, Md.). Cells were grown at 37° C. in a humidified atmosphere of 95% air, 5% CO2. Experiments were performed on cells below passage 3 to 6 grown to 80%-90% confluence.\n(§2) Protein extraction and Western blotting were carried out as described previously (Morizane et al. JBC (26)). We conducted a densitometric analysis of bands using ImageJ software. Lane-loading differences were normalized by β-actin.\n(§3) Cells were transfected with siRNAs using a Nucleofection kit (Amaxa Biosystems, Gaithersburg, Md.), following the manufacturer's protocol. The medium was changed 6 h after transfection. The down-regulation of each protein was evaluated 3 days after nucleofection."}, "[2]": {"tested_on": "c-Abl", "experiment": "Western blotting of H2O2 induced c-Abl phosphorylation in HUVEC", "format": "cell-based, human", "conditions": "AICAR 2 mM 2 h", "procedure": "HUVECs (Lonza, Walkersville, Md.) were cultured in Endothelial Growth Medium (EGM, Lonza, Walkersville, Md.). For all experiments, cells were grown at 37° C. in a humidified atmosphere of 5% CO2 and 95% air. Experiments were performed on cells below passage 3 to 6 grown to 80-90% confluence.\nProtein extraction and western blotting were carried out as described previously (Morizane et al. JBC). Densitometric analysis of bands was performed using ImageJ software. Lane-loading differences were normalized by β-actin.\n(§4) Cells were transfected with siRNAs using Nucleofection kit (Amaxa Biosysteins, Gaithersburg, Md.), following the manufacturer's protocol. The medium was changed at 6 h after transfection. The down-regulation of each protein was evaluated at 3 days after nucleofection."}, "[3]": {"tested_on": "VEGFR2", "experiment": "Western blotting of VEGF induced VEGFR2 phosphorylation in HUVECs", "format": "cell-based, human", "conditions": "AICAR 2 mM 2 h, VEGF 12.5 ng/mL 0 to 60 min; FIG. 8C,D", "procedure": "as §1, with “confluence. Protein extraction and Western blotting were carried out as described previously (Morizane et al. JBC (26)). We conducted a densitometric analysis of bands using ImageJ software. Lane-loading differences were normalized by β-actin.” for “confluence.”"}, "[4]": {"tested_on": "prdx1/c-Abl complex", "experiment": "Co-immunoprecipitation of prdx1 and c-Abl under H2O2", "format": "cell-based, human", "conditions": "AICAR 2 mM 2 h, H2O2 2 mM 30 min", "procedure": "Immunoprecipitation was performed with the Universal Magnetic Co-IP Kit (Active Motif North America, Carlsbad, Calif.), according to the manufacturer's instruction.\nas §4"}, "[5]": {"tested_on": "endothelial cells", "conditions": "in the absence of VEGF; cited from earlier work"}, "[6]": {"tested_on": "caveolin-1", "experiment": "Western blotting of VEGF induced caveolin-1 phosphorylation in HUVECs", "format": "cell-based, human", "conditions": "AICAR 2 mM 2 h", "procedure": "as §1, §2, §3"}, "[7]": {"tested_on": "VEGFR2/caveolin-1", "experiment": "Immunoprecipitation of VEGFR2 with caveolin-1 under VEGF", "format": "cell-based, human", "conditions": "AICAR 2 mM 2 h, VEGF 12.5 ng/mL 10 min; FIG. 8F,G", "procedure": "Immunoprecipitation was performed with the Universal Magnetic Co-IP Kit (Active Motif North America, Carlsbad, Calif.) according to the manufacturer's instruction."}, "[8]": {"tested_on": "PTEN", "experiment": "Western blotting of PTEN phosphorylation in HUVECs", "format": "cell-based, human", "conditions": "AICAR 2 mM, presence or absence of VEGF; FIG. 9A,D", "procedure": "as §1, §2"}, "[9]": {"tested_on": "HUVECs", "experiment": "Albumin endocytosis assay under VEGF", "format": "cell-based, human", "conditions": "AICAR 2 mM 2 h, VEGF 12.5 ng/mL 10 min; FIG. 10B", "procedure": "After overnight serum starvation, HUVECs were pretreated with AICAR (2 mM) for 2 h and then stimulated with VEGF (12.5 ng/mL) for 10 min. We added BSA conjugated with Alexa 555 (50 μg/mL, Life Technologies, Gaithersburg, Md.) in the medium during the experiment. Cells on coverslips were washed three times with cold TBS and fixed in 100% methanol at −20° C. for 15 min. Cells were then permeabilized in 0.3% Triton X-100, 0.15% BSA in TBS with 0.05% Tween 20 (TBST) for 15 min at room temperature, and blocked with 0.5% skim milk in TBST for 60 min at room temperature. Cells were incubated in p-caveolin-1 antibody diluted 1:200 and VE-cadherin antibody diluted 1:400 overnight at 4° C., and then incubated for 2 h in secondary antibody diluted 1:300. Cells were then rinsed three times in TBST before mounting in Toto3 (Life Technologies). Images were acquired with a Leica TCS SP2 spectral confocal laser scanning microscope (Leica Microsystems, Wetzlar, Germany)."}, "[10]": {"tested_on": "HUVEC", "experiment": "Albumin endocytosis assay under H2O2 (Alexa555-BSA, confocal)", "format": "cell-based, human", "conditions": "AICAR 2 mM 2 h, then H2O2 2 mM 30 min, FIG. 1D", "procedure": "After serum starvation for overnight, HUVECs were pretreated with AICAR (2 mM) for 2 h, and then stimulated with H2O2 (2 mM) for 30 min. We added BSA conjugated with Alexa 555 (50 μg/ml, Life Technologies, Gaithersburg, Md.) in the medium during the experiment. Cells on coverslips were washed three times with cold TBS and fixed in 100% methanol at −20° C. for 15 min. Cells were then permeabilized in 0.3% Triton X-100, 0.15% BSA in TBS with 0.05% Tween 20 (TBST) for 15 min at room temperature and blocked with 0.5% skim milk in TBST for 60 min at room temperature. Cells were incubated in p-caveolin-1 antibody diluted 1:200 and VE-cadherin antibody diluted 1:400 for overnight at 4° C., and then incubated for 2 h in secondary antibody diluted 1:300. Cells were then rinsed three times in TBST before mounting in Toto3 (Life Technologies, Gaithersburg, Md.). Images were acquired with confocal microscope, Leica TCS SP2 spectral confocal laser scanning microscope (Leica Microsystems, Wetzlar, Germany)."}},
  "data": [
    {"compound": "NC(=O)c1ncn([C@@H]2O[C@H](CO)[C@@H](O)[C@H]2O)c1N", "note": "[AICAR, 5-Aminoimidazole-4-carboxamide riboside]", "values": [
      {"measurement": "VEGF induced Akt phosphorylation", "setting": "[1]; AICAR 2 mM 2 h, VEGF 12.5 ng/mL 0 to 60 min, FIG. 8C,E", "result": "significantly suppressed and delayed"},
      {"measurement": "Akt phosphorylation state on AICAR treatment (time course)", "setting": "[1]; AICAR 2 mM, presence or absence of VEGF, FIG. 9A,C", "result": "Akt dephosphorylation"},
      {"measurement": "inhibitory effect of AICAR on VEGF-induced Akt phosphorylation after knockdown of either AMPKα isoform", "setting": "[1]; AMPKα1 or α2 siRNA, AICAR 2 mM 2 h, VEGF 12.5 ng/mL 10 min, FIG. 13", "result": "abolished"},
      {"measurement": "effects of AICAR on Akt dephosphorylation after PTEN knockdown", "setting": "[1]; PTEN siRNA, AICAR 2 mM 2 h, VEGF 12.5 ng/mL 10 min, FIG. 9E,F", "result": "abrogated"},
      {"measurement": "inhibitory effect of AICAR on H2O2 induced c-Abl phosphorylation after knockdown of either AMPKα isoform", "setting": "[2]; AMPKα1 or α2 siRNA HUVEC, H2O2 2 mM 30 min, FIG. 3", "result": "abolished"},
      {"measurement": "H2O2 induced phosphorylation of c-Abl", "setting": "[2]; HUVEC, then H2O2 0.5-2.0 mM 30 min, FIG. 1A,C", "result": "significantly suppressed"},
      {"measurement": "inhibitory effect of AICAR on H2O2 induced c-Abl phosphorylation in cells lacking prdx1", "setting": "[2]; prdx1 siRNA HUVEC, H2O2 2 mM 30 min, FIG. 6A,C", "result": "abolished"},
      {"measurement": "VEGFR2 phosphorylation upon VEGF stimulation", "setting": "[3]", "result": "no effect"},
      {"measurement": "H2O2 induced dissociation between prdx1 and c-Abl", "setting": "[4]; FIG. 6D", "result": "inhibited"},
      {"measurement": "inhibitory effect of AICAR on dissociation between c-Abl and prdx1 after deletion of AMPKα1 or α2", "setting": "[4]; AMPKα1 or α2 siRNA HUVEC, FIG. 6F,G", "result": "decreased"},
      {"measurement": "endothelial proliferation", "setting": "[5]", "result": "suppressed endothelial proliferation"},
      {"measurement": "VEGF induced phosphorylation of caveolin-1", "setting": "[6]; VEGF 12.5 ng/mL 0 to 60 min, FIG. 11A,C", "result": "significantly suppressed"},
      {"measurement": "inhibitory effect of AICAR on VEGF-induced caveolin-1 phosphorylation after knockdown of either AMPKα isoform", "setting": "[6]; AMPKα1 or α2 siRNA, VEGF 12.5 ng/mL 10 min, FIG. 13", "result": "abolished"},
      {"measurement": "inhibitory effect of AICAR on VEGF-induced caveolin-1 phosphorylation in cells lacking prdx1", "setting": "[6]; prdx1 siRNA, VEGF 12.5 ng/mL 10 min, FIG. 15A,C", "result": "abolished"},
      {"measurement": "VEGFR2 dissociation from caveolin-1 upon VEGF stimulation", "setting": "[7]", "result": "no effect"},
      {"measurement": "PTEN phosphorylation on AICAR treatment (time course)", "setting": "[8]", "result": "resulted in AMPK and PTEN phosphorylation"},
      {"measurement": "VEGF-induced albumin endocytosis", "setting": "[9]", "result": "significantly suppressed"},
      {"measurement": "H2O2 induced albumin endocytosis", "setting": "[10]", "result": "suppressed"},
      {"measurement": "caveolin-1 phosphorylation (immunofluorescence) in albumin endocytosis assay", "setting": "[10]", "result": "suppressed"}
    ]}
  ]
}
